A word on the EC50: it is the concentration giving half of the maximal effect.

EC50 data for 6 compounds are collected here from patent publication US9868772B2 (INDIANA UNIVERSITY RESEARCH AND TECHNOLOGY CORPORATION, priority 2012, dated 2018).

What all share (test): cAMP induction, firefly luciferase reporter assay in HEK293 cells co-transfected with receptor
What all share (type): cell-based
Common to all, as to details: Table 1, analogs of SEQ ID NO: 37
A general note: A reporter such as luciferase makes a cellular process visible.

The target in one assay is T1, GIP receptor (Homo sapiens, UniProt P48546).
T1 construct: expressed in transfected cells; host or cells: HEK293
T1 sequence (P48546 22-466): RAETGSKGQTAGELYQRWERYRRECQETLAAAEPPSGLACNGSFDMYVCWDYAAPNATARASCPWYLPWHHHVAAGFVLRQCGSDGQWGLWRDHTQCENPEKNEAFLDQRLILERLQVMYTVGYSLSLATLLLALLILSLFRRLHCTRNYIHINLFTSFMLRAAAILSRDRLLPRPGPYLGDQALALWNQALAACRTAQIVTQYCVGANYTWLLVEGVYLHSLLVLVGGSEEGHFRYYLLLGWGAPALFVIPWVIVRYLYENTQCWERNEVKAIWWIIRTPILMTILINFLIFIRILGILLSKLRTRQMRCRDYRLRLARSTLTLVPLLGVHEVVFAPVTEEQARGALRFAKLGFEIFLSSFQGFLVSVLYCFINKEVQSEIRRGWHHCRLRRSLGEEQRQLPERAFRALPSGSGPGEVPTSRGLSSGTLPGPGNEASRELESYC
On the procedure: (§1) The ability of glucagon analogs to induce cAMP was measured in a firefly luciferase-based reporter assay. […] At the end of the incubation 100 microliters of LucLite luminescence substrate reagent (Perkin-Elmer, Wellesley, Mass.) were added to each well. […] Effective 50% concentrations were calculated by using Origin software (OriginLab, Northampton, Mass.

For the next assay, the target named is T2, GLP-1 receptor (Homo sapiens, UniProt P43220).
T2 construct: expressed in transfected cells; host or cells: HEK293
On the procedure:
as §1

The next assay concerns the target T3, glucagon receptor (Homo sapiens, UniProt P47871).
T3 construct: expressed in transfected cells; host or cells: HEK293
On the procedure: as §1

Numbered stars: 1 amine (or outer) side, 2 acyl side, 3 side chain; on linkers, the order of the positions; unused ones are H or OH. Square brackets hold non-standard residues; d marks the D form. Side chains are listed from the residue outwards. Peptide text beside a SMILES is read from it. * marks the point of attachment. γGlu = O=C(O)[C@H](CCC(=O)[*:2])N[*:1]; Desaminohistidyl = O=C(CCc1c[nH]cn1)*; Palmitoyl = CCCCCCCCCCCCCCCC(=O)*; βAla = NCCC(=O)O

T3 sequence (P47871 26-477): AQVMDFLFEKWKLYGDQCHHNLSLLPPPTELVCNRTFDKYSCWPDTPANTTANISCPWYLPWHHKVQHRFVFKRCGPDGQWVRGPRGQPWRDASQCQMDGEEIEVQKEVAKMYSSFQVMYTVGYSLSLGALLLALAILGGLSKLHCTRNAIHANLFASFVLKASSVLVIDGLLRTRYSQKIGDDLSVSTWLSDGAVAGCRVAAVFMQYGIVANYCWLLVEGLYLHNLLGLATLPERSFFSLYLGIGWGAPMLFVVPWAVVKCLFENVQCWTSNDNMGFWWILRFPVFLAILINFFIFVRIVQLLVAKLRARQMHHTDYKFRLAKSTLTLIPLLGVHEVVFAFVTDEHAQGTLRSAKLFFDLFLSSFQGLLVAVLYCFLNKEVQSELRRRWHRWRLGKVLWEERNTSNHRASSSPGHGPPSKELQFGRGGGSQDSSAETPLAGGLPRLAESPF
T2 sequence (P43220 24-463): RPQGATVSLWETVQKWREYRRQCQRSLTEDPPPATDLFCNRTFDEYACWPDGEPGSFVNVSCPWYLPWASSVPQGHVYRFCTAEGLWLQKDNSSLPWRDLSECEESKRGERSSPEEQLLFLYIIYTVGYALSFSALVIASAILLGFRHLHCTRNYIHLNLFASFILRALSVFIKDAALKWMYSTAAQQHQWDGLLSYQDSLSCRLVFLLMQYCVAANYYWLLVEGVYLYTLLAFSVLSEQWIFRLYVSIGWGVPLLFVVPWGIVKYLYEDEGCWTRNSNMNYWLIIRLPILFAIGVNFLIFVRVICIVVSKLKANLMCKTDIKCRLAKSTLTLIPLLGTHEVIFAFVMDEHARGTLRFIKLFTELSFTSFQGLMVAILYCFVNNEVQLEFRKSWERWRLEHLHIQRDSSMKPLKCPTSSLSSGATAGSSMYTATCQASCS

In the case of `CCCCCCCCCCCCCCCC(=O)N[C@@H](CCC(=O)NCCCC[C@H](NC(=O)[C@H](CC(=O)O)NC(=O)[C@H](CO)NC(=O)[C@@H](NC(=O)[C@H](Cc1ccccc1)NC(=O)[C@@H](NC(=O)CNC(=O)[C@H](CCC(N)=O)NC(=O)[C@H](C)NC(=O)[C@@H](Cc1cccs1)NC(C)=O)[C@@H](C)O)[C@@H](C)O)C(=O)N[C@@H](CO)C(=O)N[C@@H](CCCCN)C(=O)N[C@@H](Cc1ccc(O)cc1)C(=O)N[C@@H](CC(C)C)C(=O)N[C@@H](CC(=O)O)C(=O)N[C@@H](CCC(=O)O)C(=O)N[C@@H](CCCNC(=N)N)C(=O)N[C@@H](C)C(=O)N[C@@H](C)C(=O)N[C@@H](CCC(N)=O)C(=O)N[C@@H](CC(=O)O)C(=O)N[C@@H](Cc1ccccc1)C(=O)N[C@H](C(=O)N[C@@H](CCC(N)=O)C(=O)N[C@@H](Cc1c[nH]c2ccccc12)C(=O)N[C@@H](CC(C)C)C(=O)N[C@@H](CC(C)C)C(=O)N[C@@H](CCC(=O)O)C(=O)NCC(=O)NCC(=O)N1CCC[C@H]1C(=O)N[C@@H](CO)C(=O)N[C@@H](CO)C(=O)NCC(=O)N[C@@H](C)C(=O)N1CCC[C@H]1C(=O)N1CCC[C@H]1C(=O)N1CCC[C@H]1C(=O)N[C@@H](CO)C(N)=O)C(C)C)C(=O)O` [compound 17], the EC50 was 0.011 nM on GIP receptor, 0.005 nM on GLP-1 receptor and 0.008 nM at glucagon receptor.

`CCCCCCCCCCCCCCCC(=O)N[C@@H](CCC(=O)NCCCC[C@H](NC(=O)[C@H](CC(=O)O)NC(=O)[C@H](CO)NC(=O)[C@@H](NC(=O)[C@H](Cc1ccccc1)NC(=O)[C@@H](NC(=O)CNC(=O)[C@H](CCC(N)=O)NC(=O)[C@H](C)NC(=O)[C@H](Cc1cccs1)NC(C)=O)[C@@H](C)O)[C@@H](C)O)C(=O)N[C@@H](CO)C(=O)N[C@@H](CCCCN)C(=O)N[C@@H](Cc1ccc(O)cc1)C(=O)N[C@@H](CC(C)C)C(=O)N[C@@H](CC(=O)O)C(=O)N[C@@H](CCC(=O)O)C(=O)N[C@@H](CCCNC(=N)N)C(=O)N[C@@H](C)C(=O)N[C@@H](C)C(=O)N[C@@H](CCC(N)=O)C(=O)N[C@@H](CC(=O)O)C(=O)N[C@@H](Cc1ccccc1)C(=O)N[C@H](C(=O)N[C@@H](CCC(N)=O)C(=O)N[C@@H](Cc1c[nH]c2ccccc12)C(=O)N[C@@H](CC(C)C)C(=O)N[C@@H](CC(C)C)C(=O)N[C@@H](CCC(=O)O)C(=O)NCC(=O)NCC(=O)N1CCC[C@H]1C(=O)N[C@@H](CO)C(=O)N[C@@H](CO)C(=O)NCC(=O)N[C@@H](C)C(=O)N1CCC[C@H]1C(=O)N1CCC[C@H]1C(=O)N1CCC[C@H]1C(=O)N[C@@H](CO)C(N)=O)C(C)C)C(=O)O` [compound 21]: the results for the 50% effective concentration (EC50) on GIP receptor, at GLP-1 receptor and on glucagon receptor were 0.04 nM, 0.026 nM and 0.006 nM, respectively.

`CCCCCCCCCCCCCCCC(=O)N[C@@H](CCC(=O)NCCCC[C@H](NC(=O)[C@H](CC(=O)O)NC(=O)[C@H](CO)NC(=O)[C@@H](NC(=O)[C@H](Cc1ccccc1)NC(=O)[C@@H](NC(=O)CNC(=O)[C@H](CCC(N)=O)NC(=O)[C@H](C)NC(=O)CCc1c[nH]cn1)[C@@H](C)O)[C@@H](C)O)C(=O)N[C@@H](CO)C(=O)N[C@@H](CCCCN)C(=O)N[C@@H](Cc1ccc(O)cc1)C(=O)N[C@@H](CC(C)C)C(=O)N[C@@H](CC(=O)O)C(=O)N[C@@H](CCC(=O)O)C(=O)N[C@@H](CCCNC(=N)N)C(=O)N[C@@H](C)C(=O)N[C@@H](C)C(=O)N[C@@H](CCC(N)=O)C(=O)N[C@@H](CC(=O)O)C(=O)N[C@@H](Cc1ccccc1)C(=O)N[C@H](C(=O)N[C@@H](CCC(N)=O)C(=O)N[C@@H](Cc1c[nH]c2ccccc12)C(=O)N[C@@H](CC(C)C)C(=O)N[C@@H](CC(C)C)C(=O)N[C@@H](CCC(=O)O)C(=O)NCC(=O)NCC(=O)N1CCC[C@H]1C(=O)N[C@@H](CO)C(=O)N[C@@H](CO)C(=O)NCC(=O)N[C@@H](C)C(=O)N1CCC[C@H]1C(=O)N1CCC[C@H]1C(=O)N1CCC[C@H]1C(=O)N[C@@H](CO)C(N)=O)C(C)C)C(=O)O` [compound 22] (Desaminohistidyl-AQGTFTSDK([γGlu-Palmitoyl])SKYLDERAAQDFVQWLLEGGPSSGAPPPS-NH2): the figures for the EC50 on GIP receptor, on GLP-1 receptor and on glucagon receptor were 0.041 nM, 0.003 nM and 0.017 nM, respectively.

With `CCCCCCCCCCCCCCCC(=O)N[C@@H](CCC(=O)NCCCC[C@H](NC(=O)[C@H](CC(=O)O)NC(=O)[C@H](CO)NC(=O)[C@@H](NC(=O)[C@H](Cc1ccccc1)NC(=O)[C@@H](NC(=O)CNC(=O)[C@H](CCC(N)=O)NC(=O)CNC(=O)[C@H](N)Cc1c[nH]cn1)[C@@H](C)O)[C@@H](C)O)C(=O)N[C@@H](CO)C(=O)N[C@@H](CCCCN)C(=O)N[C@@H](Cc1ccc(O)cc1)C(=O)N[C@@H](CC(C)C)C(=O)N[C@@H](CC(=O)O)C(=O)N[C@@H](CCC(=O)O)C(=O)N[C@@H](CCCNC(=N)N)C(=O)N[C@@H](C)C(=O)N[C@@H](C)C(=O)N[C@@H](CCC(N)=O)C(=O)N[C@@H](CC(=O)O)C(=O)N[C@@H](Cc1ccccc1)C(=O)N[C@H](C(=O)N[C@@H](CCC(N)=O)C(=O)N[C@@H](Cc1c[nH]c2ccccc12)C(=O)N[C@@H](CC(C)C)C(=O)N[C@@H](CC(C)C)C(=O)N[C@@H](CCC(=O)O)C(=O)NCC(=O)NCC(=O)N1CCC[C@H]1C(=O)N[C@@H](CO)C(=O)N[C@@H](CO)C(=O)NCC(=O)N[C@@H](C)C(=O)N1CCC[C@H]1C(=O)N1CCC[C@H]1C(=O)N1CCC[C@H]1C(=O)N[C@@H](CO)C(N)=O)C(C)C)C(=O)O` [compound 23] (H-[dH]GQGTFTSDK([γGlu-Palmitoyl])SKYLDERAAQDFVQWLLEGGPSSGAPPPS-NH2; N-terminus assumed), the EC50 on GIP receptor is 0.043 nM; on GLP-1 receptor it was 0.003 nM; on glucagon receptor, 0.015 nM.

In the case of `CCCCCCCCCCCCCCCC(=O)N[C@@H](CCC(=O)NCCCC[C@H](NC(=O)[C@H](CC(=O)O)NC(=O)[C@H](CO)NC(=O)[C@@H](NC(=O)[C@H](Cc1ccccc1)NC(=O)[C@@H](NC(=O)CNC(=O)[C@H](CCC(N)=O)NC(=O)[C@H](C)NC(=O)C(CN)Cc1c[nH]cn1)[C@@H](C)O)[C@@H](C)O)C(=O)N[C@@H](CO)C(=O)N[C@@H](CCCCN)C(=O)N[C@@H](Cc1ccc(O)cc1)C(=O)N[C@@H](CC(C)C)C(=O)N[C@@H](CC(=O)O)C(=O)N[C@@H](CCC(=O)O)C(=O)N[C@@H](CCCNC(=N)N)C(=O)N[C@@H](C)C(=O)N[C@@H](C)C(=O)N[C@@H](CCC(N)=O)C(=O)N[C@@H](CC(=O)O)C(=O)N[C@@H](Cc1ccccc1)C(=O)N[C@H](C(=O)N[C@@H](CCC(N)=O)C(=O)N[C@@H](Cc1c[nH]c2ccccc12)C(=O)N[C@@H](CC(C)C)C(=O)N[C@@H](CC(C)C)C(=O)N[C@@H](CCC(=O)O)C(=O)NCC(=O)NCC(=O)N1CCC[C@H]1C(=O)N[C@@H](CO)C(=O)N[C@@H](CO)C(=O)NCC(=O)N[C@@H](C)C(=O)N1CCC[C@H]1C(=O)N1CCC[C@H]1C(=O)N1CCC[C@H]1C(=O)N[C@@H](CO)C(N)=O)C(C)C)C(=O)O` (stereo partly drawn) [compound 25], the figures for the EC50 at GIP receptor, at GLP-1 receptor and on glucagon receptor were 0.064 nM, 0.003 nM and 0.024 nM, respectively.

With `CCCCCCCCCCCCCCCC(=O)N[C@@H](CCC(=O)NCCCC[C@H](NC(=O)[C@H](CC(=O)O)NC(=O)[C@H](CO)NC(=O)[C@@H](NC(=O)[C@H](Cc1ccccc1)NC(=O)[C@@H](NC(=O)CNC(=O)[C@H](CCC(N)=O)NC(=O)CCNC(=O)[C@@H](N)Cc1c[nH]cn1)[C@@H](C)O)[C@@H](C)O)C(=O)N[C@@H](CO)C(=O)N[C@@H](CCCCN)C(=O)N[C@@H](Cc1ccc(O)cc1)C(=O)N[C@@H](CC(C)C)C(=O)N[C@@H](CC(=O)O)C(=O)N[C@@H](CCC(=O)O)C(=O)N[C@@H](CCCNC(=N)N)C(=O)N[C@@H](C)C(=O)N[C@@H](C)C(=O)N[C@@H](CCC(N)=O)C(=O)N[C@@H](CC(=O)O)C(=O)N[C@@H](Cc1ccccc1)C(=O)N[C@H](C(=O)N[C@@H](CCC(N)=O)C(=O)N[C@@H](Cc1c[nH]c2ccccc12)C(=O)N[C@@H](CC(C)C)C(=O)N[C@@H](CC(C)C)C(=O)N[C@@H](CCC(=O)O)C(=O)NCC(=O)NCC(=O)N1CCC[C@H]1C(=O)N[C@@H](CO)C(=O)N[C@@H](CO)C(=O)NCC(=O)N[C@@H](C)C(=O)N1CCC[C@H]1C(=O)N1CCC[C@H]1C(=O)N1CCC[C@H]1C(=O)N[C@@H](CO)C(N)=O)C(C)C)C(=O)O` [compound 26] (H-H[βAla]QGTFTSDK([γGlu-Palmitoyl])SKYLDERAAQDFVQWLLEGGPSSGAPPPS-NH2), the 50% effective concentration (EC50) came out at 0.071 nM on GIP receptor, 0.002 nM at GLP-1 receptor and 0.095 nM on glucagon receptor.
